Broadly, the EC50 is the concentration at which the effect is half-maximal. In general, IC50 refers to the concentration that gives 50% inhibition. The low end stands for higher potency, the high end for lower potency.

Assay [1] has as its system γ-secretase. In words: Population PK/PD modeling of mouse brain Aβ42 reduction. It counts as in vivo. The note with it: population PK/PD model, mice. As for the experimental part: Mice and rats were maintained on 12/12 h light/dark cycle with food available ad libitum. Drug treatment was prepared in a vehicle of 1 % carboxymethylcellulose (CMC):Tween80 (99.5:0.5). Twelve-week-old wild-type male mice (129S6, Taconic Biosciences, Hudson, NY, USA) or rats (Wistar, Charles River Laboratories) were administered compound p.o. without prior fasting and euthanized by CO2 asphyxiation at specified times post-dosing. After extraction of the brain, the olfactory bulb and hindbrain were removed and the cerebral hemispheres separated (mice) or cut in 4 pieces (rats). The cerebellum was removed for bioanalysis of the compound. CSF was collected from the cisterna magna and blood from a cardiac puncture.
A population pharmacokinetic/pharmacodynamic (PK/PD) analysis was performed to obtain maximal efficacy (Emax) and concentration leading to 50 % of Emax (EC50) using the Phoenix® NLME™ (NonLinear Mixed Effect) program (version 6.3, Certara USA, Inc., St. Louis, MO). The goodness of fit was assessed based on visual inspection of curve fitting, Akaike’s information criterion (AIC), and precision of parameter estimation.

Assay [2] has as its system Notch processing. Briefly: Notch reporter assay (HeLa 6xCBF1-Luc, NotchΔE). It counts as cell-based, human. The note with it: Homo sapiens, overnight. The method, then:
The wild-type CBF1 binding element was cloned in front of the SV40 promoter-driven luciferase reporter construct of pGL3pro (Promega, Madison, WI, USA) using the following oligonucleotides: • CBF1 Fw (5’→3’): […] • CBF1 Rv (5’→3’): […]
Oligonucleotides were phosphorylated using T4 polynucleotide kinase and annealed (by heating to 90 °C and cooling to room temperature in a buffer containing 0.1 M NaCl). Plasmid pGL3pro was cleaved with BglII and dephosphorylated using alkaline phosphatase. The oligonucleotide pair was then ligated using T4 ligase with the linearized plasmid DNA. A clone containing 6 copies of the CBF1 element in front of the SV40 promoter was chosen. The 6xCBF1-RE/SV40 promoter was excised from pGL3 using XhoI and HindIII, and the fragment transferred to the pGL4.17 [luc2/Neo] vector (Promega) was opened with the same restriction enzymes.
The full length human Notch in plasmid pCMV6-XL5 (Origene, Rockville, MD, USA) was used to amplify a truncated form of Notch (NotchΔE) containing the 20-amino-acid (a.a.) signal sequence followed by 5 a.a. […]
HeLa cells stably transfected with the 6xCBF1-Luc reporter were transiently transfected with the NotchΔE construct (4 μg DNA/10^6 cells) using Lipofectamine 2000 (Thermo Fisher, Waltham, MA, USA) in 6-well plates. […] Chemiluminescence was then read on an EnVision plate reader (Perkin Elmer).
(In general: In a reporter assay the amount or activity of a reporter protein is the signal.)

Some results are limits rather than exact numbers.

Turning to `COc1nc(C2=NOC[C@H](c3cc4ccccc4o3)N2)ccc1-n1cnc(C)c1` [FRM-36143, (R)-5-(benzofuran-2-yl)-3-(6-methoxy-5-(4-methyl-1H-imidazol-1-yl)pyridin-2-yl)-5,6-dihydro-4H-1,2,4-oxadiazine], the “Maximal brain Aβ42 reduction (Emax)” value in assay [1] (30 mg/kg data) came out at 51%. Moreover, the “Emax for effect on brain Aβ42” value in assay [1] (30 mg/kg data only, CV: 15 %) is listed as 0.51. In addition, in assay [1] (30 mg/kg, unbound plasma concentration, 2.5–97.5 % CI 4.6–151 nM, read-out: In vivo EC50 for Aβ42), the concentration giving a half-maximal response (EC50) was determined as 0.078 µM. Further, the IC50 in assay [2] is more than 10 µM.
